Values quoted from earlier work, collected in patent US20260272825A1, “LEVONORGESTREL AND COMPOSITIONS COMPRISING THE SAME” (CHEMO RESEARCH, S.L., priority 2023, published 2026).

Test system: women

In the case of `C#C[C@]1(O)CC[C@H]2[C@@H]3CCC4=CCCC[C@@H]4[C@H]3C(=C)C[C@@]21CC` [desogestrel], the “Cycles with ovulation inhibited” value (POP containing desogestrel 0.075 mg) is given as “at least 98%”.
In the case of `C[C@]12CCC3=C4CCC(=O)C=C4CC[C@H]3[C@@H]1CC[C@@]2(O)CC#N` [DNG, Dienogest], the “Ovulation inhibition / ovarian activity, in words” value (2 mg daily) is listed as “provides ovulation inhibition, but ovarian activity is not completely suppressed”.
In the case of `C#C[C@]1(OC(C)=O)CC[C@H]2[C@@H]3CCC4=CC(=O)CC[C@@H]4[C@H]3CC[C@@]21C` [NETA, norethisterone acetate], the “Dosage providing ovulation inhibition” value (given continuously over 28 days) is given as ≥ 0.35 mg/daily.
